Laboratory results published in ChEMBL document CHEMBL1268840, “Design, synthesis and structure-activity relationship of novel quinoxalin-2-carboxamides as 5-HT3 receptor antagonists for the management of depression” (Bioorg Med Chem Lett, 2010).

How the values were obtained:
[1] = system: Mus musculus; experiment: Toxicity in mouse assessed as induction of spontaneous locomotor activity at 1 mg/kg, ip after 10 mins by actophotometry; type: organism-based; set-up: dose 1 mg/kg, route intraperitoneal; details: in vivo
[2] = system: Mus musculus; experiment: Antidepressant-like activity in mouse assessed as immobility time at 1 mg/kg, ip by forced swimming test; type: functional; details: route intraperitoneal
[3] = system: Mus musculus; experiment: Toxicity in mouse assessed as induction of spontaneous locomotor activity at 2 mg/kg, ip after 10 mins by actophotometry; type: organism-based; set-up: dose 2 mg/kg, route intraperitoneal; details: in vivo
[4] = biological target: T1, 5-hydroxytryptamine receptor 3A (Cavia porcellus, UniProt O70212); experiment: Antagonist activity at 5HT3 receptor in guinea pig ileum longitudinal muscle myenteric plexus assessed as inhibition of 2-methyl-5-HT-induced contraction; type: functional, tissue-based; details: read-out: pA2 (converted)
T1 sequence (O70212 whole entry): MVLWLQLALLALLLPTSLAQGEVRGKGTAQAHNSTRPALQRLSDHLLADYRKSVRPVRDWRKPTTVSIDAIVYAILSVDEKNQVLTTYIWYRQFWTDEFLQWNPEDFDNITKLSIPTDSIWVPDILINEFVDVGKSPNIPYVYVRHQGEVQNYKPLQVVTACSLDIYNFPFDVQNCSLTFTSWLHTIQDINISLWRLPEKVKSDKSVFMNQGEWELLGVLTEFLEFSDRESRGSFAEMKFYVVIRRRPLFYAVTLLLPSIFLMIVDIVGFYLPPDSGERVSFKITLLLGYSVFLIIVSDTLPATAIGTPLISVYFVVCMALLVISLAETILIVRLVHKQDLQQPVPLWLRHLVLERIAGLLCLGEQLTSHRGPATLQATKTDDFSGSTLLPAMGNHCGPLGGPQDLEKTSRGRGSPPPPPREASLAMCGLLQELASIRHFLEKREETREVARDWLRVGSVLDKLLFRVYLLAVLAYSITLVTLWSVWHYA

[5] = system: Mus musculus; experiment: Toxicity in mouse assessed as induction of spontaneous locomotor activity at 0.5 mg/kg, ip after 10 mins by actophotometry; type: organism-based; set-up: dose 0.5 mg/kg, route intraperitoneal; details: in vivo
[6] = system: Mus musculus; experiment: Antidepressant-like activity in mouse assessed as immobility time at 2 mg/kg, ip by forced swimming test; type: functional; details: route intraperitoneal
[7] = system: Mus musculus; experiment: Antidepressant-like activity in mouse assessed as immobility time at 0.5 mg/kg, ip by forced swimming test; type: functional; details: route intraperitoneal

Structure (SMILES)	Activity [1]	Time [2] [s]	Activity [3]	Kb [4] [nM]	Activity [5]	Time [6] [s]	Time [7] [s]
O=C(Nc1nc2ccccc2s1)c1cnc2ccccc2n1	Non-toxic	115.1	Non-toxic	31600	Non-toxic	–	–
O=C(Nc1ccc([N+](=O)[O-])cc1)c1cnc2ccccc2n1	Non-toxic	106.32	Non-toxic	10000	Non-toxic	108	142
CCCCNC(=O)c1cnc2ccccc2n1	Non-toxic	97.5	Non-toxic	50.1	Non-toxic	103	121
O=C(NC1CCCC1)c1cnc2ccccc2n1	Non-toxic	94.25	Non-toxic	316	Non-toxic	120	125
CCCNC(=O)c1cnc2ccccc2n1	Non-toxic	92.33	Non-toxic	200	Non-toxic	125	148
COc1ccc(NC(=O)c2cnc3ccccc3n2)cc1	Non-toxic	143.5	Non-toxic	10000	Non-toxic	–	–
O=C(NNc1ccccc1)c1cnc2ccccc2n1	Non-toxic	95.4	Non-toxic	1580	Non-toxic	121	126
O=C(NCc1ccccc1)c1cnc2ccccc2n1	Non-toxic	133	Non-toxic	2000	Non-toxic	–	–
O=C(Nc1ccccc1NC(=O)c1cnc2ccccc2n1)c1ccccc1	Non-toxic	121	Non-toxic	100000	Non-toxic	–	–
Cc1c(Cl)cccc1NC(=O)c1cnc2ccccc2n1	Non-toxic	95.42	Non-toxic	25.1	Non-toxic	147	120
O=C(NC1CCCCC1)c1cnc2ccccc2n1	Non-toxic	92.85	Non-toxic	1000	Non-toxic	99	119
CC(=O)c1cccc(NC(=O)c2cnc3ccccc3n2)c1	Non-toxic	132.4	Non-toxic	794	Non-toxic	–	–
O=C(Nc1ccc(NC(=O)c2cnc3ccccc3n2)cc1)c1ccccc1	Non-toxic	125	Non-toxic	12600	Non-toxic	–	–
O=C(Nc1ccccc1)c1cnc2ccccc2n1	Non-toxic	141	Non-toxic	158	Non-toxic	–	–
O=C(c1cnc2ccccc2n1)N1CCCC1	Non-toxic	139	Non-toxic	398	Non-toxic	–	–
Cc1nccn1CC1CCc2c(c3ccccc3n2C)C1=O (stereo not drawn) [ONDANSETRON]	Non-toxic	100.4	Non-toxic	126	Non-toxic	95.1	130.2
O=C(Nc1cccc(Cl)c1)c1cnc2ccccc2n1	Non-toxic	151.2	Non-toxic	1580	Non-toxic	–	–
Cc1ccc(NC(=O)c2cnc3ccccc3n2)cc1	Non-toxic	105	Non-toxic	6310	Non-toxic	97.23	140
